Measured values from US5858397A, “Liposomal formulations of mitoxantrone” (priority 1995, dated 1999).
Where a name gives a salt, the structure may show the parent alone.

Key:
in vivo = details: mouse, iv, 10 mg/kg
Procedure: At 1, 4, 24, and 48 hours, the animals were terminated by CO2 asphyxiation and whole blood was collected via cardiac puncture. The collected blood was immediately placed into EDTA coated tubes (MICROTAINERS® from Becton Dickinson). Subsequently, plasma was prepared by centrifuging the EDTA treated whole blood at 500×g for 10 min. Lipid and drug was assayed via [^3 H]-Cholesteryl hexadecyl ether and I^14 C]-mitoxantrone tracer using a scintillation counter as described above.
An estimation of the amount of mitoxantrone retained in the liposomes that are in the circulation can be made by determining the ratio of mitoxantrone-to-lipid at the indicated time points. This estimation assumes that the level of free drug in the plasma of animals given liposomal mitoxantrone will be negligible.

[1] = Toxic dose range finding (maximum tolerated dose) in tumor-free mice; details: mouse, in vivo
Procedure: (§1) Injections were administered in a volume of 200 μL. In order to achieve this volume for the 20 mg/kg dose, the stock mixture was concentrated using Aquacide II. Survival times of the mice were then monitored over a sixty day time course. Increase in life span (ILS %) was calculated as follows: [formula] Maximum tolerated dose was determined by monitoring the weight loss of the mice over a two week period. If the mice lost greater than 30% of the original weight then the mice are terminated.

L1210 = L1210 anti-tumor activity (survival); type: in vivo, BDF1 mice; details: for 60 Day Survival / Mean Survival: single; for % ILS (Increase in Life Span): vs untreated control
Procedure: as §1
The antitumor effects of free mitoxantrone and liposomal mitoxantrone were compared using the L1210 tumor model. L1210 is a murine lymphocytic leukemia. […] This provides identical tumor models for the two organs.

[2] = Change in body weight during efficacy studies
Procedure: as §1

[3] = tested on: tumor models and human carcinomas; details: cited from earlier work

| SMILES | AUC (in vivo) | MTD [1] | maximum therapeutic dose (L1210; 10^4 L1210 cells i.v., treated 24 h later) | 60 Day Survival (L1210; drug dose 5 mg/kg) | Mean Survival (L1210; drug dose 5 mg/kg) | % ILS (Increase in Life Span) (L1210; drug dose 5 mg/kg) | 60 Day Survival (L1210; drug dose 10 mg/kg) | Mean Survival (L1210; drug dose 10 mg/kg) | % ILS (Increase in Life Span) (L1210; drug dose 10 mg/kg) | 60 Day Survival (L1210; drug dose 20 mg/kg) | Mean Survival (L1210; drug dose 20 mg/kg) | % ILS (Increase in Life Span) (L1210; drug dose 20 mg/kg) | maximum % increase in life span (L1210; maximum over the doses tested) | body weight loss at nadir ([2]; L1210-bearing mice, free 10 mg/kg, liposomal 20 mg/kg, day 12 to 13) | MTD ([2]; mouse, in vivo) | short and long term toxicity compared with doxorubicin [3] | toxic side effect [3] |
| --- | --- | --- | --- | --- | --- | --- | --- | --- | --- | --- | --- | --- | --- | --- | --- | --- | --- |
| O=C1c2c(O)ccc(O)c2C(=O)c2c(NCCNCCO)ccc(NCCNCCO)c21 [Free Mitoxantrone, mitoxantrone hydrochloride] | 11.4 ng·h/mL | 10 mg/kg | 10 mg/kg | 0/5 | 13.6 days | 58% | 0/5 | 16.6 days | 93% | 0/5 | 12.6 days | 47% | 93% | ~30% | 10 mg/kg | lower short and long term toxicity than doxorubicin | myelosuppression |
| COc1cccc2c1C(=O)c1c(O)c3c(c(O)c1C2=O)C[C@@](O)(C(=O)CO)C[C@@H]3O[C@H]1C[C@H](N)[C@H](O)[C@H](C)O1 [doxorubicin] | – | – | – | – | – | – | – | – | – | – | – | – | – | – | – | – | dose limiting cardiotoxicity |
